Reference: paper PMC7179022, “Carvacrol Prodrugs with Antimicrobial Activity Loaded on Clay Nanocomposites” (Materials, 2020)
Converted amounts (≈) assume the structure as drawn.

Experiments:
[1] = parameters: method as in PMID 16869897, PMID 31284397; conditions: cited from earlier work
[2] = cited from earlier work
[3] = Chemical conversion of carvacrol prodrugs to carvacrol in water and buffer solutions (HPLC); type: physicochemical; conditions: 37 °C, 1 mg/mL, mean (±SD) of three experiments
Experimental: We removed 400 μL samples at various time intervals and drug concentrations were analyzed by high performance liquid chromatography (HPLC) using an Agilent 1260 Infinity II HPLC (Agilent, Santa Clara, CA, USA) consisting of quaternary pump, autosampler, column oven, and UV-Vis diode-array detector. Samples were run in an Agilent Poroshell 120 EC-C18 column (4 μm, 4.60 × 150 mm; Agilent, Santa Clara, CA, USA) maintained at 25 °C. The mobile phase consisted of a mixture 50:50 v/v H2O MilliQ (Merck KGaA, Darmstadt, Germany) and CH3CN with 0.1% trifluoracetic acid (TFA) flushing at an isocratic flow rate of 1 mL/min. The detector was set at a wavelength of 270 nm. Data were processed using LC Open LAB HPLC 1260 software (Agilent, Santa Clara, CA, USA). Results are reported as relative difference (RD%) of prodrugs conversion, calculated with Equation (1):(1) RD%=Ci− Cf/Ci ×100 where Ci is the prodrug concentration at zero time point and Cf is the prodrug concentration at the end of incubation.

[4] = In vitro release studies of WSCP1-3 loaded-VHS in a dissolution tester; type: physicochemical; conditions: 37 °C, from prodrug-VHS nanohybrid
Experimental: Release studies were conducted in a dissolution tester (Sotax AT7, SOTAX Group, Aesch, Switzerland). […] During the test, temperature was maintained constant at 37 °C and agitation was achieved using a paddle system set to 100 rpm. At predetermined time intervals, 5 mL of dissolution medium was withdrawn, filtered with 0.45 μm Millipore^© membranes, and replaced with an equal volume of the corresponding fresh dissolution medium. […] Va is the volume picked up; and Ci is the concentration of drug at time i.

[5] = acid pH (0.1 M HCl, pH 1.2), 120 min
[6] = pH 6.8 phosphate buffer, 240 min

Row | Compound | octanol/water partition coefficient (logP o/w) [1] | water solubility [2] [mg/mL] | pseudo-first-order dissociation rate constant Kobs ([3]; pH 6.8 buffer) | pseudo-first-order dissociation rate constant Kobs ([3]; pH 7.4 buffer) | amount of prodrug released from VHS [4, 5] [%] | amount of prodrug released from VHS [4, 6] [%]
1 | Cc1ccc(C(C)C)cc1O [carvacrol, 2-methyl-5-isopropylphenol] | 3.64 | 0.11 (≈ 732 µM) | – | – | – | –
2 | Cc1ccc(C(C)C)cc1OC(=O)CCN [WSCP3] | – | – | 0.0381 (±0.0002) h^−1 | 0.0420 (±0.0006) h^−1 | 45 | 44
3 | Cc1ccc(C(C)C)cc1OC(=O)CN [WSCP1] | – | – | 0.2982 (±0.0106) h^−1 | – | 38 | 65
4 | Cc1ccc(C(C)C)cc1OC(=O)[C@@H](C)N [WSCP2] | – | – | 0.9027 (±0.0042) h^−1 | 0.7878 (±0.0629) h^−1 | 54 | 78
